Consider 1 substance from patent US10646489B2, “Compositions and methods for increasing energy metabolism” (NuSirt Sciences, Inc., priority 2012, dated 2020).

Test [1] deals with C2C12 myotubes. Kind of test: Glucose utilization (extracellular acidification response to glucose injection) in C2C12 myotubes / muscle cells. It counts as cell-based. As to conditions: C2C12 myotubes; leucine alone. The method, then:
Glucose utilization was measured as extracellular acidification response to glucose injection. *p=0.04. […] Treatment with 0.5 mM leucine corresponds to a circulating level of the same molarity achieved by administering about 1,125 mg of dietary leucine to a human subject. Treatment with 0.25 mM leucine corresponds to a circulating level of the same molarity achieved by administering about 300 mg of dietary leucine to a human subject.

For test [2], the system named is C2C12 myotubes. Description: Mitochondrial biogenesis measured as mitochondrial mass in C2C12 myotubes. It counts as cell-based. The settings on record: C2C12 cells treated with leucine alone; p<0.05. Here is the method:
The output of the pathways can be measured using one or more methods, disclosed herein and/or known in the art. […] Mitochondrial biogenesis can be measured using a mitochondrial probe by using fluorescence. AMPK activity can be determined by measuring AMPK phosphorylation via an ELISA assay or by Western blot. Sirt1 activity can be determined by measuring deacetylation of a substrate, which can be detected using a fluorophore. […] Treatment with 0.5 mM leucine corresponds to a circulating level of the same molarity achieved by administering about 1,125 mg of dietary leucine to a human subject. Treatment with 0.25 mM leucine corresponds to a circulating level of the same molarity achieved by administering about 300 mg of dietary leucine to a human subject.

In test [3] the test system is diet-induced obese mouse. Description: Post-prandial glucose, insulin and HOMAIR in the diet-induced obese mouse. The settings on record: 7 days of treatment, leucine 24 g/kg diet, icariin 25 mg/kg diet. It counts as in vivo. Here is the method: The interactive effects of icariin, a flavanol with specific PDE5 inhibitory properties, on glycemia and insulin sensitivity were assessed in the diet-induced obese mouse, which can be used as a murine model of type 2 diabetes. Male C57/BL6 mice were placed on standard low-fat chow (control; 10% energy from fat) or high fat (60% energy from fat, Research Diets # D12492, Research Diets, Inc, New Brunswick, N.J.) at six weeks of age to induce insulin resistance. […], with 10 animals per group: Low fat diet (LFD) control; High fat diet (HFD) control; HFD+leucine (24 g/kg diet, a two-fold increase over control levels)1 HFD+leucine (24 g/kg diet)+icariin (25 mg/kg diet). […] Mice were fasted overnight (˜16 hours) prior to measurement of fasting blood glucose, insulin and glucose tolerance. Glucose tolerance was determined following measurement of fasting glucose via intraperitoneal administration of glucose (1.2 g/kg body weight) followed by blood glucose measurement at 15, 30, 60, 90 and 120 minutes. Post-prandial glucose was measured within one hour of cessation of eating. Insulin tolerance was measured via an insulin tolerance test (ITT). Food was removed 4-6 hours prior to ITT, and baseline blood glucose measured. The mice were then injected intraperitoneally with insulin (1.2 U/kg body weight) and blood glucose was measured 15, 30, 60, 90 and 120 minutes following insulin injection. The homeostasis model assessment of insulin resistance (HOMAIR) was used as a screening index of changes in insulin sensitivity. HOMAIR is calculated via standard formula from fasting plasma insulin and glucose as follows: HOMAIR=[Insulin (uU/mL)×glucose (mM)]/22.5. The plasma glucose and insulin concentrations were measured using the Glucose Assay Kit from Biovision (Milpitas, Calif.) and the Insulin kit from Millipore (Billerica, Mass.), respectively. CRP levels in plasma were determined by ELISA (CRP: Life Diagnostics, West Chester, Pa.).

Test [4] deals with diet-induced obese mouse. Description: Fasting blood glucose, insulin and HOMAIR in the diet-induced obese mouse. Type of test: in vivo. As to conditions: 6 week treatment. The method, then: The interactive effects of icariin, a flavanol with specific PDE5 inhibitory properties, on glycemia and insulin sensitivity were assessed in the diet-induced obese mouse, which can be used as a murine model of type 2 diabetes. Male C57/BL6 mice were placed on standard low-fat chow (control; 10% energy from fat) or high fat (60% energy from fat, Research Diets # D12492, Research Diets, Inc, New Brunswick, N.J.) at six weeks of age to induce insulin resistance. […] The animals were then randomized to the following diets for an additional six weeks, with 10 animals per group: Low fat diet (LFD) control; High fat diet (HFD) control; HFD+leucine (24 g/kg diet, a two-fold increase over control levels)1 HFD+leucine (24 g/kg diet)+icariin (25 mg/kg diet). […] Mice were fasted overnight (˜16 hours) prior to measurement of fasting blood glucose, insulin and glucose tolerance. Glucose tolerance was determined following measurement of fasting glucose via intraperitoneal administration of glucose (1.2 g/kg body weight) followed by blood glucose measurement at 15, 30, 60, 90 and 120 minutes. Post-prandial glucose was measured within one hour of cessation of eating. Insulin tolerance was measured via an insulin tolerance test (ITT). Food was removed 4-6 hours prior to ITT, and baseline blood glucose measured. The mice were then injected intraperitoneally with insulin (1.2 U/kg body weight) and blood glucose was measured 15, 30, 60, 90 and 120 minutes following insulin injection. The homeostasis model assessment of insulin resistance (HOMAIR) was used as a screening index of changes in insulin sensitivity. HOMAIR is calculated via standard formula from fasting plasma insulin and glucose as follows: HOMAIR=[Insulin (uU/mL)×glucose (mM)]/22.5. The plasma glucose and insulin concentrations were measured using the Glucose Assay Kit from Biovision (Milpitas, Calif.) and the Insulin kit from Millipore (Billerica, Mass.), respectively. CRP levels in plasma were determined by ELISA (CRP: Life Diagnostics, West Chester, Pa.).

The subject of test [5] is diet-induced obese mouse. Description: Liver mass in the diet-induced obese mouse. As to conditions: 6 week treatment. It counts as in vivo. Here is the method: The interactive effects of icariin, a flavanol with specific PDE5 inhibitory properties, on glycemia and insulin sensitivity were assessed in the diet-induced obese mouse, which can be used as a murine model of type 2 diabetes. Male C57/BL6 mice were placed on standard low-fat chow (control; 10% energy from fat) or high fat (60% energy from fat, Research Diets # D12492, Research Diets, Inc, New Brunswick, N.J.) at six weeks of age to induce insulin resistance. […] The animals were then randomized to the following diets for an additional six weeks, with 10 animals per group: Low fat diet (LFD) control; High fat diet (HFD) control; HFD+leucine (24 g/kg diet, a two-fold increase over control levels)1 HFD+leucine (24 g/kg diet)+icariin (25 mg/kg diet). […] A chronic high fat diet is associated with other deleterious consequences. For example, a chronic high fat diet can increase liver mass, likely resulting from fatty accumulation in the liver. Chronic high fat feeding is also associated with chronic inflammation, which can contribute to a number of diseases. To determine the effects of leucine or leucine+icariin administration on additional consequences of high fat feeding, liver mass and C-reactive protein (a biomarker of inflammation) were assessed in all experimental groups at the end of the 6 week study. […] HFD, FIG. 26). […]

For the substance leucine, the “glucose utilization, agent alone” value in the test with C2C12 myotubes [1] came to 9.3%. For the same substance, the mitochondrial biomass in the test with C2C12 myotubes [2] is listed as 22.05+/−0.4 AFU/μg protein. Also, the “reduction in post-prandial glucose vs. untreated HFD mice” value in the test with diet-induced obese mouse [3] was “no independent effect”. Moreover, in the test on diet-induced obese mouse [4], the “reduction in HOMAIR vs. untreated HFD mice” value was approximately 30%, the “reduction in circulating insulin during fasting vs. untreated HFD mice” value is listed as approximately 25% and the “reduction in fasting glucose vs. untreated HFD mice” value is listed as approximately 20%. Moreover, the “reduction in liver mass vs. untreated HFD mice” value in the test with diet-induced obese mouse [5] is given as approximately 10%.
